PubChem BioAssay AID1845202 (Molecular Pharmacology Branch, DTP, NCI, 2023)

Tested on: DMS 114 tumor spheroids, viability % test/control
Test: Anticancer human tumor DMS 114 cell line growth inhibition;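 note: spheroids exposed to compounds for 7 days before read-out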;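 for viability, T/C: luminescence used as a proxy for viable cells; 100% = DMSO vehicle control viability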
Details: spheroids with HUVEC and MSC; for IC50: curve of first compound; for viability, T/C: stronger effect = lower value; active = viability on the fitted dose curve at most 10% of control; inactive = the rest
Outline: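 Complex tumor spheroids combined malignant cells with endothelial cells and mesenchymal stem cells. DNA-damaging drugs and DNA repair inhibitors were tested alone and in combination, at half-log dilutions down from clinical Cmax (top 10 microM if Cmax unknown), 0.25% DMSO final.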

Cc1sc2c(c1C)C(c1ccc(Cl)cc1)=NC(CC(=O)Nc1ccc(O)cc1)c1nnc(C)n1-2 (stereo not given) + COc1cc2c(cc1O)CCNC21CSC2c3c(OC(C)=O)c(C)c4c(c3C(COC1=O)N1C(O)C3Cc5cc(C)c(OC)c(O)c5C(C21)N3C)OCO4
165 nM: IC50 (second compound 30 pM)
< 9.49 nM: IC50 (second compound 0.0003 µM) | IC50 (second compound 0.000949 µM) | IC50 (second compound 0.003 µM)
inactive: viability, T/C (second compound 30 pM, first compound 0.00949 µM) 107% | viability, T/C (second compound 30 pM, first compound 0.03 µM) 102% | viability, T/C (second compound 30 pM, first compound 0.0949 µM) 65.1% | viability, T/C (second compound 30 pM, first compound 0.3 µM) 33.3% | viability, T/C (second compound 94.9 pM, first compound 0.00949 µM) 101% | viability, T/C (second compound 94.9 pM, first compound 0.03 µM) 80.1% | viability, T/C (second compound 94.9 pM, first compound 0.0949 µM) 55.4% | viability, T/C (second compound 94.9 pM, first compound 0.3 µM) 12.1% | viability, T/C (second compound 0.0003 µM, first compound 0.00949 µM) 41.7% | viability, T/C (second compound 0.0003 µM, first compound 0.03 µM) 27.1% | viability, T/C (second compound 0.0003 µM, first compound 0.0949 µM) 13.1%
97.3 nM: IC50 (second compound 94.9 pM)
active: viability, T/C (second compound 30 pM, first compound 0.949 µM) 5.12% | viability, T/C (second compound 30 pM, first compound 3 µM) 3.29% | viability, T/C (second compound 94.9 pM, first compound 0.949 µM) 5.83% | viability, T/C (second compound 94.9 pM, first compound 3 µM) 1.91% | viability, T/C (second compound 0.0003 µM, first compound 0.3 µM) 5.79% | viability, T/C (second compound 0.0003 µM, first compound 0.949 µM) 1.67% | viability, T/C (second compound 0.0003 µM, first compound 3 µM) 0.76% | viability, T/C (second compound 0.000949 µM, first compound 0.00949 µM) 3.12% | viability, T/C (second compound 0.000949 µM, first compound 0.03 µM) 1.58% | viability, T/C (second compound 0.000949 µM, first compound 0.0949 µM) 1.35% | viability, T/C (second compound 0.000949 µM, first compound 0.3 µM) 0.73% | viability, T/C (second compound 0.000949 µM, first compound 0.949 µM) 0.39% | viability, T/C (second compound 0.000949 µM, first compound 3 µM) 0.19% | viability, T/C (second compound 0.003 µM, first compound 0.00949 µM) 0.2% | viability, T/C (second compound 0.003 µM, first compound 0.03 µM) 0.19% | viability, T/C (second compound 0.003 µM, first compound 0.0949 µM) 0.17% | viability, T/C (second compound 0.003 µM, first compound 0.3 µM) 0.13% | viability, T/C (second compound 0.003 µM, first compound 0.949 µM) 0.16% | viability, T/C (second compound 0.003 µM, first compound 3 µM) 0.3%

[2H]c1nc(C)nc([2H])c1-c1cc(NC[C@@H](C)c2cccc3c(C(=O)NC)ccnc23)ncn1 + COc1cc2c(cc1O)CCNC21CSC2c3c(OC(C)=O)c(C)c4c(c3C(COC1=O)N1C(O)C3Cc5cc(C)c(OC)c(O)c5C(C21)N3C)OCO4
< 31.6 nM: IC50 (second compound 0.0003 µM) | IC50 (second compound 0.000949 µM) | IC50 (second compound 0.003 µM)
> 10000 nM: IC50 (second compound 30 pM) | IC50 (second compound 94.9 pM)
active: viability, T/C (second compound 0.000949 µM, first compound 0.0316 µM) 2.57% | viability, T/C (second compound 0.000949 µM, first compound 0.1 µM) 4.99% | viability, T/C (second compound 0.000949 µM, first compound 0.316 µM) 2.84% | viability, T/C (second compound 0.000949 µM, first compound 1 µM) 4.1% | viability, T/C (second compound 0.000949 µM, first compound 3.16 µM) 3.19% | viability, T/C (second compound 0.000949 µM, first compound 10 µM) 3.15% | viability, T/C (second compound 0.003 µM, first compound 0.0316 µM) 0.21% | viability, T/C (second compound 0.003 µM, first compound 0.1 µM) 0.22% | viability, T/C (second compound 0.003 µM, first compound 0.316 µM) 0.17% | viability, T/C (second compound 0.003 µM, first compound 1 µM) 0.21% | viability, T/C (second compound 0.003 µM, first compound 3.16 µM) 0.16% | viability, T/C (second compound 0.003 µM, first compound 10 µM) 0.28%
inactive: viability, T/C (second compound 30 pM, first compound 0.0316 µM) 105% | viability, T/C (second compound 30 pM, first compound 0.1 µM) 113% | viability, T/C (second compound 30 pM, first compound 0.316 µM) 106% | viability, T/C (second compound 30 pM, first compound 1 µM) 109% | viability, T/C (second compound 30 pM, first compound 3.16 µM) 107% | viability, T/C (second compound 30 pM, first compound 10 µM) 97.6% | viability, T/C (second compound 94.9 pM, first compound 0.0316 µM) 111% | viability, T/C (second compound 94.9 pM, first compound 0.1 µM) 107% | viability, T/C (second compound 94.9 pM, first compound 0.316 µM) 108% | viability, T/C (second compound 94.9 pM, first compound 1 µM) 111% | viability, T/C (second compound 94.9 pM, first compound 3.16 µM) 98.3% | viability, T/C (second compound 94.9 pM, first compound 10 µM) 98% | viability, T/C (second compound 0.0003 µM, first compound 0.0316 µM) 44.4% | viability, T/C (second compound 0.0003 µM, first compound 0.1 µM) 38.9% | viability, T/C (second compound 0.0003 µM, first compound 0.316 µM) 39% | viability, T/C (second compound 0.0003 µM, first compound 1 µM) 42.1% | viability, T/C (second compound 0.0003 µM, first compound 3.16 µM) 37.4% | viability, T/C (second compound 0.0003 µM, first compound 10 µM) 42.4%
